Measured values reported in article PMC2726290, “Decoding of Methylated Histone H3 Tail by the Pygo-BCL9 Wnt Signaling Complex” (Molecular Cell, 2008).
Where two headings read alike, the source gives them in different places.

How the values were obtained:
[1] = biological target: T1, hPHD-HD1 complex (hPygo1 PHD with hBCL9 HD1) (Homo sapiens, UniProt O00512+Q9Y3Y4); test: ITC, histone tail peptides with human PHD-HD1 complex; type: binding; details: ITC at 25 °C
T1 construct: hPygo1 PHD (amino acids 333–402); GST (N, cleaved yes); made in house; host or cells: E. coli BL21-CodonPlus(DE3)-RIL
T1 sequence (Q9Y3Y4 333-402): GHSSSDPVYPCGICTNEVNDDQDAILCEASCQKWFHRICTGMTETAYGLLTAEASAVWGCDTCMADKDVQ
T1 sequence (O00512 177-205 partner limits assumed): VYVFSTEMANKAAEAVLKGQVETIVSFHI
Description: (§1) ITC was carried out using a VP-ITC Microcal calorimeter (Microcal, Northhampton, MA, USA). Peptides were lyophilized against freshly prepared 20mM ammonium bicarbonate solution and resuspended in the ITC dialysis buffer (25mM Tris pH 8.0, 100mM NaCl and 2mM β-mercaptoethanol). Experiments were performed at 25 °C. During titration, 4-12µl aliquots of 0.5-1.0mM peptide solution was injected into a solution of 50µM protein at time intervals of 5 min. ITC data were corrected for the heat of dilution and analyzed using Origin (version 5.0) provided by the manufacturer. […]

[2] = biological target: T2, dPHD-HD1 complex (Drosophila Pygo PHD with Lgs HD1) (Drosophila melanogaster, UniProt Q961D9+Q9V9W8); test: ITC, histone tail peptides with Drosophila PHD-HD1 complex; type: binding
T2 construct: Drosophila Pygo PHD (amino acids 747–808); GST (N, cleaved yes); made in house; host or cells: E. coli BL21-CodonPlus(DE3)-RIL
T2 sequence (Q9V9W8 747-808): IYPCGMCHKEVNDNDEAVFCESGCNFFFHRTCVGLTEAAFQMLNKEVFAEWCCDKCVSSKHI
T2 sequence (Q961D9 316-350 partner limits assumed): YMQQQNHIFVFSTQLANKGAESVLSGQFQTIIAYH
Description: as §1

[3] = biological target: T3, PHD finger from hPygo1 (hPHD) (Homo sapiens, UniProt Q9Y3Y4); test: ITC, histone tail peptides with free hPHD; type: binding; details: 15-mer peptides, ITC at 25 °C, pH 8.0
T3 construct: hPygo1 PHD (amino acids 333–402); GST (N, cleaved yes); made in house; host or cells: E. coli BL21-CodonPlus(DE3)-RIL
T3 sequence (Q9Y3Y4 333-402): T1 sequence (Q9Y3Y4 333-402)
Description: Free PHD fingers were purified similarly to the PHD-HD1 complexes, and purity was assessed by SDS-PAGE prior to use for ITC.
as §1

[4] = system: PHD from hPygo1 (GST-hPHD); test: In vitro pull-down, MBP-tagged HD1 deletions with GST-hPHD; type: binding, human; details: systematic N- and C-terminal deletions of HD1, MBP-tagged
Description: Figure S2. Deletion Analysis of hBCL9 HD1 and Binding to hPygo1 PHD
(A) Systematic N- and C-terminal deletions of HD1 from hBCL9 (underlined), individually and combined (bottom); sequences between, and including, red (marking deletion end-points) were tested for their in vitro binding to PHD from hPygo1 (B), as summarized on […]
(B) In vitro pull-down assays, to test binding between MBP-tagged HD1 deletions and GST-hPHD; positive controls, Lgs HD1, hBCL9 AKV-TER; negative controls, GST, MBP-ACTN2; IP, input (5%); G, GST; PHD, GST-hPHD. […]

9-mer H3K4me2 ΔA1: truncated H3K4me2 peptide spanning R2-K9 (without A1, ΔA1) (RTKQTARK; dimethyl-lysine at K4)
binding (in words) ([1]; human PHD-HD1 complex, pH 8.0): No binding was detectable

C[C@H](N)C(=O)N[C@@H](CCCNC(=N)N)C(=O)N[C@H](C(=O)N[C@@H](CCCCN(C)C)C(=O)N[C@@H](CCC(N)=O)C(=O)N[C@H](C(=O)N[C@@H](C)C(=O)N[C@@H](CCCNC(=N)N)C(=O)N[C@@H](CCCCN)C(=O)O)[C@@H](C)O)[C@@H](C)O [9-mer H3K4me2]
Kd ([1]; Figure 3B, hPHD-HD1, pH 8.0, 100 mM NaCl, 25 mM Tris-HCl, 10 μM ZnCl2, 2 mM β-mercaptoethanol, 50µM protein, 0.5-1.0mM peptide, one-site model, ± fitting error, read-out: Binding constant (Kd)): 11.4 ± 1.1 µM

9-mer H3K4me2 A1>G: 9-mer whose A1 was substituted with a glycine (A1 > G) (GRTKQTARK; dimethyl-lysine at K4)
binding (in words) ([1]; human PHD-HD1 complex, pH 8.0): reduced to almost background levels

C[C@H](N)C(=O)N[C@@H](CCCNC(=N)N)C(=O)N[C@H](C(=O)N[C@@H](CCCCN(C)C)C(=O)N[C@@H](CCC(N)=O)C(=O)N[C@H](C(=O)N[C@@H](C)C(=O)N[C@@H](CCCNC(=N)N)C(=O)N[C@@H](CCCCN)C(=O)N[C@@H](CO)C(=O)N[C@H](C(=O)NCC(=O)NCC(=O)N[C@@H](CCCCN)C(=O)N[C@@H](C)C(=O)O)[C@@H](C)O)[C@@H](C)O)[C@@H](C)O [15-mer H3K4me2]
Kd ([2]; Figure 3A panel, dPHD-HD1, 15-mer peptide, ITC at 25 °C, 100 mM NaCl, 25 mM Tris-HCl pH 8.0, 10 μM ZnCl2, 2 mM β-mercaptoethanol, 50µM protein, 0.5-1.0mM peptide, one-site model, ± fitting error, read-out: Kd): 12.6 ± 0.5 µM | Kd [3]: 2.4 µM | Kd ([1]; Figure 3A panel, hPHD-HD1, 15-mer peptides, 100 mM NaCl, 25 mM Tris-HCl pH 8.0, 10 μM ZnCl2, 2 mM β-mercaptoethanol, 50µM protein, 0.5-1.0mM peptide, one-site model, ± fitting error, read-out: Kd): 0.93 ± 0.01 µM

CNCCCC[C@H](NC(=O)[C@@H](NC(=O)[C@H](CCCNC(=N)N)NC(=O)[C@H](C)N)[C@@H](C)O)C(=O)N[C@@H](CCC(N)=O)C(=O)N[C@H](C(=O)N[C@@H](C)C(=O)N[C@@H](CCCNC(=N)N)C(=O)N[C@@H](CCCCN)C(=O)N[C@@H](CO)C(=O)N[C@H](C(=O)NCC(=O)NCC(=O)N[C@@H](CCCCN)C(=O)N[C@@H](C)C(=O)O)[C@@H](C)O)[C@@H](C)O [15-mer H3K4me1]
Kd ([2]; Figure 3B, dPHD-HD1, ITC at 25 °C, pH 8.0, 100 mM NaCl, 25 mM Tris-HCl, 10 μM ZnCl2, 2 mM β-mercaptoethanol, 50µM protein, 0.5-1.0mM peptide, one-site model, ± fitting error, read-out: Binding constant (Kd)): 21.5 ± 0.3 µM | Kd [3]: 9 µM | Kd ([1]; human PHD-HD1 complex, pH 8.0, read-out: Kd): 2.9 µM

C[C@H](N)C(=O)N[C@@H](CCCNC(=N)N)C(=O)N[C@H](C(=O)N[C@@H](CCCC[N+](C)(C)C)C(=O)N[C@@H](CCC(N)=O)C(=O)N[C@H](C(=O)N[C@@H](C)C(=O)N[C@@H](CCCNC(=N)N)C(=O)N[C@@H](CCCCN)C(=O)N[C@@H](CO)C(=O)N[C@H](C(=O)NCC(=O)NCC(=O)N[C@@H](CCCCN)C(=O)N[C@@H](C)C(=O)O)[C@@H](C)O)[C@@H](C)O)[C@@H](C)O [15-mer H3K4me3]
Kd [2]: 23 µM

V177-I205: minimal PHD-interacting fragment of HD1 from hBCL9 (VYVFSTEMANKAAEAVLKGQVETIVSFHI; HD1; UniProt O00512 177-205, looked up, fragment)
PHD binding of HD1 fragment (in words) [4]: minimal PHD-interacting fragment
